According to patent US20220016200A1, “PHARMACEUTICAL COMPOSITION FOR THE TREATMENT OF CYSTIC FIBROSIS” (GALENUS G.H. AG, priority 2018, published 2022):
Bridge positions count the residues as written; N and C are the ends. Square brackets hold non-standard residues; d marks the D form. Peptide text beside a SMILES is read from it. * marks the point of attachment. Heptanoyl(5-Me) = CCC(C)CCCC(=O)*; Dab = NCC[C@H](N)C(=O)O

Tests used:
A. nosocomialis 1461911 = experiment: Checkerboard colistin sulphate (CS) plus teicoplanin (TP), MIC/FIC and MBC/FBC; format: cell-based, Acinetobacter nosocomialis
Description: Checkerboard analysis to determine minimal inhibitory concentration (MIC)/fractional inhibitory concentration (FIC) and minimal […] (MBC)/fractional […] (FBC) values of colistin sulphate (CS) plus teicoplanin (TP) for 6 Gram-negative strains with a bacterial load 5(1-10)*10^5 CFU/ml in a cation-adjusted Mueller-Hinton broth (CAMHB). • a. Antimicrobial stock solutions were prepared using sterile distilled water • b. CS was added along the ordinate; TP was added along the abscissa to 96 well, flat bottom, polystyrene panels with no treatment. Colistin alone was tested in triplicates. • c. Serial 2-fold dilutions starting with 640 μg/ml CS and 640 μg/ml TP were made; 15 μl volume of the serial dilutions were added for each agent to the appropriate wells; final volume at 30 μl • d. For each agent tested alone an additional 15 μl media was added to the well. 30 μl were added in control wells where none of the agent was tested. The negative control well contains 150 μl media without any additions • e. From an overnight bacterial culture in tryptic soy broth, 100 μL was added to 10 mL of fresh tryptic soy broth. This was then incubated at 37° C. for 1.5 hour at 180 rpm. • f. Bacteria in 120 μl CAMHB were added to each well (end concentration 5(1-10)*10^5 CFU/ml) • g. Plates were incubated at 37° C. in an ambient air incubator for 24 h • h. Turbidity at OD600 is determined with a plate photometer • i. By using a one-time inoculator 3 μl from each well of the 96-well plate were transferred to three blood agar plates. The plates were incubated over night at 37° C. in an ambient air incubator • j. MIC values are defined as lowest concentration which restricts bacterial growth to OD600 ≤0.1 • k. MBC values were determined by visual reading the lowest concentration which inhibits 99.9% of the growth of bacteria in the wells • l. Determination of the fractional inhibitory concentration (FIC) index and fractional bactericidal concentration (FBC) index and characterization of antimicrobial interactions was assessed […]
FIC calculation was carried out as: (MIC of drug A, tested in combination)/(MIC of drug A, tested alone)+(MIC of drug B, tested in combination)/(MIC of drug B, tested alone). FBC calculation was carried out just as well […]
Interactive categories were calculated from checkerboard analysis using MIC results from testing each agent alone and MIC results from the combination wells adjacent to the wells with growth in them […]
b. Indifference; FIC/FBC>0.5 to<4.0 c. Antagonism; FIC/FBC≥4.0 b. A. nosocomialis 1461911 (IHMA), colistin resistant

[1] = tested on: A. nosocomialis strain (1461911 IHMA); experiment: Pneumonic mouse model, colistin resistant strain; format: in vivo, Acinetobacter nosocomialis; settings: BALB/c mice, 3 per group, one intramuscular dose 24 hours after inoculation, combination groups stated together for both strains (6 mice)
Description: One colistin susceptible (MIC 1 mg/L) A. nosocomialis strain (1204194 IHMA) and one colistin resistant (MIC 4 mg/L) A. nosocomialis strain (1461911 IHMA) are used. […] Fresh brain heart infusion broth (Merck, Darmstadt, Germany) bacterial cultures, in an aerobic atmosphere in the logarithmic growth phase (4-5 hours) at 37° C., are adjusted to a concentration of 1.0×10^6 colony forming units (CFU)/mL, as verified by both spectrophotometry (OD600 0.01-0.02 nm) and colony counting.
A pneumonic mouse model was used. 8- to 12-week-old, specific-pathogen free, male or female BALB/c mice, with 25-35 g in weight, are used for the study Animals have free access to food and water except during experimental procedures. All studies are performed in accordance with the ethical guidelines for the care and use of laboratory animals, and the protocol is approved by an independent ethical commission.
For inoculation, fresh inocula are prepared for each experiment from frozen stocks of the two A. nosocomialis isolates (1204194 and 1461911 IHMA). Broth cultures of freshly plated A. nosocomialis bacteria are grown to logarithmic phase overnight to an absorbance of 0.3 at 630 nm and diluted to 10^7 CFU/ml in saline. Mice are anesthetized by intraperitoneal (i.p.) injection of 12.5 mg/kg (5 μl) xylazine and 80 mg/kg (25 μl) ketamine and then inoculated intranasally with 0.05 ml of this bacterial suspension. […]

SMILES: CCC(C)CCCC(=O)N[C@@H](CCN)C(=O)N[C@H](C(=O)N[C@@H](CCN)C(=O)N[C@H]1CCNC(=O)[C@H]([C@@H](C)O)NC(=O)[C@H](CCN)NC(=O)[C@H](CCN)NC(=O)[C@H](CC(C)C)NC(=O)[C@@H](CC(C)C)NC(=O)[C@H](CCN)NC1=O)[C@@H](C)O (stereo partly drawn) [CS, colistin sulphate] ({Heptanoyl(5-Me)}-[Dab]T[Dab][Dab][Dab][dL]L[Dab][Dab]T; lactam 4-C)
- MIC (A. nosocomialis 1461911; Acinetobacter nosocomialis, 1461911, colistin resistant A. nosocomialis strain 1461911 IHMA, as stated for the mouse model, read-out: MIC): 4 µg/mL
- MBC (A. nosocomialis 1461911; Acinetobacter nosocomialis, 1461911, A. nosocomialis, agent alone, CAMHB, 5*10^5 CFU/ml, read-out: MBC): 8 µg/mL
- mice that survive until day 3 [1]: 0/3
